The results in this text go back to US12016852B2, “Pyrrolidine glycosidase inhibitors” (Asceneuron SA, priority 2018, dated 2024).

The structures appear in SMILES notation.

In general, IC50 refers to the concentration that inhibits the measured activity by half.

This experiment has as its target T1, Human O-GlcNAcase (His-Tagged hOGA) (Homo sapiens, UniProt O60502).
T1 sequence (O60502 1-916): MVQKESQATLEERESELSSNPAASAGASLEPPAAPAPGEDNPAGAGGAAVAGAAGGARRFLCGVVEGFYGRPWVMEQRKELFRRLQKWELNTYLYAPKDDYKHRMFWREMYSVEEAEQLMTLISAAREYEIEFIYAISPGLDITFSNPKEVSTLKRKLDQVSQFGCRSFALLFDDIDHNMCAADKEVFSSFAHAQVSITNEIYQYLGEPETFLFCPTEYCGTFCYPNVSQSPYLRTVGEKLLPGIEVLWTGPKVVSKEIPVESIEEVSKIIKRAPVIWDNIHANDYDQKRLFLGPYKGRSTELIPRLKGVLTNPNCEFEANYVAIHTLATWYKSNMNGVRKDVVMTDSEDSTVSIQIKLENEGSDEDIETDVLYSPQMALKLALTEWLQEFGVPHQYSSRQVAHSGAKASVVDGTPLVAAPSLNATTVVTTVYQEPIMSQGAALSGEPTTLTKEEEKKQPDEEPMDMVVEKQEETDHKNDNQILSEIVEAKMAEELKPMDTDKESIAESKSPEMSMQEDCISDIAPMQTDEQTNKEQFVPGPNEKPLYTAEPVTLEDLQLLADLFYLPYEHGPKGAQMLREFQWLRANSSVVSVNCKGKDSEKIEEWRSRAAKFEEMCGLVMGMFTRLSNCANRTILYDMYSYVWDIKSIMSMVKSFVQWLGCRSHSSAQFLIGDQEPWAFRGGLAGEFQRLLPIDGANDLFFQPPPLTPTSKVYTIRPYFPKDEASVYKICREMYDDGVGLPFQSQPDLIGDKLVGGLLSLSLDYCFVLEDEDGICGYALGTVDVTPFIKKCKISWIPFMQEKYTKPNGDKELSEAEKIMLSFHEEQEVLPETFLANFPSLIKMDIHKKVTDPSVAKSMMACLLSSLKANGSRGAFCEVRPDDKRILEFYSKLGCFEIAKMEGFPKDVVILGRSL
The experiment in a line: Human O-GlcNAcase enzyme inhibition assay. In kind it is biochemical. The note with it: 20 nM His-Tagged hOGA, 10 μM FL-GlcNAc, McIlvaine's Buffer pH 6.5, 60 min at room temperature, fluorescence; read-out: OGA IC50. The protocol:
Example B01: Human O-GlcNAcase Enzyme Inhibition Assay
5 μl of the appropriate concentration of a solution of inhibitor in Mcllvaine's Buffer (pH 6.5) in 2% DMSO (for a dose response curve calculation) is added into each well of a 384-well plate (Greiner, 781900). Then, 20 nM of His-Tagged hOGA and 10 μM of FL-GlcNAc (Fluorescein mono-beta-D-(2-deoxy-2-N-acetyl) glucopyranoside; Marker Gene Technologies Inc, M1485) were added to the 384-well plate for a final volume of 20 μl. After incubation for 60 min at room temperature, the reaction was terminated by the addition of 10 μL of stop buffer (200 mM glycine, pH 10.75). The level of fluorescence (λexc 485 nm; (λemm 520 nm) was read on a PHERAstar machine. The amount of fluorescence measured was plotted against the concentration of inhibitor to produce a sigmoidal dose response curve to calculate an IC50. All individual data was corrected by subtraction of the background (Thiamet 3 uM=100% inhibition) whilst 0.5% DMSO was considered as the control value (no inhibition).
For `Cn1cc(-c2ccc(CN3CCCC3c3ccc4c(c3)OCCO4)cc2)cn1` (racemic) [Example 4, 4-(4-((2-(2,3-dihydrobenzo[b] [1,4]dioxin-6-yl)pyrrolidin-1-yl)methyl)phenyl)-1-methyl-1H-pyrazole], the IC50 lay within 50 to 200 nM.
Under `Cn1cc(-c2ccc(CN3CCCC3c3ccc4c(c3)OCCO4)cn2)cn1` (racemic) [Example 5, 5-((2-(2,3-dihydrobenzo[b] [1,4]dioxin-6-yl)pyrrolidin-1-yl)methyl)-2-(1-methyl-1H-pyrazol-4-yl)pyridine] stands 50 to 200 nM.
Under `CS(=O)(=O)c1ccc(CN2CCCC2c2ccc3c(c2)OCCO3)cc1` (racemic) [Example 8, 2-(2,3-dihydrobenzo[b] [1,4]dioxin-6-yl)-1-(4-(methylsulfonyl)benzyl) pyrrolidine] stands 200 to 1000 nM; under `c1ccc(-c2ccc(CN3CCCC3c3ccc4c(c3)OCCO4)cc2)cc1` (racemic) [Example 9, 1-([1,1′-biphenyl]-4-ylmethyl)-2-(2,3-dihydrobenzo[b] [1,4]dioxin-6-yl)pyrrolidine], 200 to 1000 nM; under `CS(=O)(=O)c1ccc(CN2CCCC2c2ccc3c(c2)OCC3)cc1` (racemic) [Example 10, 2-(2,3-dihydrobenzofuran-6-yl)-1-(4-(methylsulfonyl)benzyl)pyrrolidine], 200 to 1000 nM.
Under `Cn1cc(-c2ccc(CN3CCCC3c3ccc4c(c3)OCC4)cc2)cn1` (racemic) [Example 11, 4-(4-((2-(2,3-dihydrobenzofuran-6-yl)pyrrolidin-1-yl)methyl)phenyl)-1-methyl-1H-pyrazole] stands less than 50 nM; under `Cn1cc(-c2ccc(CN3CCCC3c3ccc4c(c3)OCC4)cn2)cn1` (racemic) [Example 12, 5-((2-(2,3-dihydrobenzofuran-6-yl)pyrrolidin-1-yl)methyl)-2-(1-methyl-1H-pyrazol-4-yl)pyridine], 50 to 200 nM.
As for `CS(=O)(=O)c1ccc(-c2ccc(CN3CCCC3c3ccc4c(c3)OCCO4)nc2)cc1` (racemic) [Example 14, 2-((2-(2,3-dihydrobenzo[b] [1,4]dioxin-6-yl)pyrrolidin-1-yl)methyl)-5-(4-(methylsulfonyl)phenyl)pyridine], the IC50 lay within 200 to 1000 nM.
Take `c1cnn(-c2ccc(CN3CCCC3c3ccc4c(c3)OCCO4)cc2)c1` (racemic) [Example 16, 1-(4-((2-(2,3-dihydrobenzo[b] [1,4]dioxin-6-yl)pyrrolidin-1-yl)methyl)phenyl)-1H-pyrazole]: the IC50 was 50 to 200 nM.
In the case of `c1cnc2ccc(CN3CCCC3c3ccc4c(c3)OCCO4)cc2c1` (racemic) [Example 19, 6-((2-(2,3-dihydrobenzo[b] [1,4]dioxin-6-yl)pyrrolidin-1-yl)methyl)quinoline], the IC50 lay in the range of 200 to 1000 nM.
Regarding `Cn1ncc2cc(CN3CCCC3c3ccc4c(c3)OCCO4)ccc21` (racemic) [Example 20, 5-((2-(2,3-dihydrobenzo[b] [1,4]dioxin-6-yl)pyrrolidin-1-yl)methyl)-1-methyl-1H-indazole], the IC50 lay within 200 to 1000 nM.
As to `Cn1cc(-c2cccc(CN3CCCC3c3ccc4c(c3)OCCO4)c2)cn1` (racemic) [Example 21, 4-(3-((2-(2,3-dihydrobenzo[b] [1,4]dioxin-6-yl)pyrrolidin-1-yl)methyl)phenyl)-1-methyl-1H-Pyrazole], the IC50 lay within 200 to 1000 nM.
Under `c1ccc(-c2ccc(CN3CCCC3c3ccc4c(c3)OCC4)cc2)cc1` (racemic) [Example 22, 1-([1,1′-biphenyl]-4-ylmethyl)-2-(2,3-dihydrobenzofuran-6-yl)pyrrolidine] stands 200 to 1000 nM.
Under `c1cc(N2CCOCC2)ccc1CN1CCCC1c1ccc2c(c1)OCCO2` (racemic) [Example 23, 4-(4-((2-(2,3-dihydrobenzo[b] [1,4]dioxin-6-yl)pyrrolidin-1-yl)methyl)phenyl)morpholine] stands 200 to 1000 nM; under `c1cc(N2CCOCC2)ccc1CN1CCCC1c1ccc2c(c1)OCC2` (racemic) [Example 24, 4-(4-((2-(2,3-dihydrobenzofuran-6-yl)pyrrolidin-1-yl)methyl)phenyl)morpholine], 200 to 1000 nM; under `c1ccc2ncc(CN3CCCC3c3ccc4c(c3)OCCO4)cc2c1` (racemic) [Example 26, 3-((2-(2,3-dihydrobenzo[b] [1,4]dioxin-6-yl)pyrrolidin-1-yl)methyl)quinoline], 200 to 1000 nM.
As to `c1cc(N2CCSCC2)ccc1CN1CCCC1c1ccc2c(c1)OCCO2` (racemic) [Example 28, 4-(4-((2-(2,3-dihydrobenzo[b] [1,4]dioxin-6-yl)pyrrolidin-1-yl)methyl) Phenyl) thiomorpholine], the IC50 lay within 200 to 1000 nM.
Under `c1ccc(-c2ccc(CN3CCCC3c3ccc4c(c3)OCCO4)cc2)nc1` (racemic) [Example 29, 2-(4-((2-(2,3-dihydrobenzo[b] [1,4]dioxin-6-yl)pyrrolidin-1-yl)methyl)phenyl)pyridine] stands 200 to 1000 nM.
Under `c1cncc(-c2ccc(CN3CCCC3c3ccc4c(c3)OCCO4)cc2)c1` (racemic) [Example 30, 3-(4-((2-(2,3-dihydrobenzo[b] [1,4]dioxin-6-yl)pyrrolidin-1-yl)methyl)phenyl) pyridine] stands 50 to 200 nM; under `Clc1cc(-c2cccnc2)ccc1CN1CCCC1c1ccc2c(c1)OCCO2` (racemic) [Example 31, 3-(3-chloro-4-((2-(2,3-dihydrobenzo[b] [1,4]dioxin-6-yl)pyrrolidin-1-yl)methyl)phenyl)pyridine], 200 to 1000 nM; under `Fc1cc(-c2cccnc2)ccc1CN1CCCC1c1ccc2c(c1)OCCO2` (racemic) [Example 32, 3-(4-((2-(2,3-dihydrobenzo[b] [1,4]dioxin-6-yl)pyrrolidin-1-yl)methyl)-3-fluorophenyl)pyridine], 50 to 200 nM.
Under `c1ncn(-c2ccc(CN3CCCC3c3ccc4c(c3)OCCO4)cc2)n1` (racemic) [Example 34, 1-(4-((2-(2,3-dihydrobenzo[b] [1,4]dioxin-6-yl)pyrrolidin-1-yl)methyl)phenyl)-1H-1,2,4-triazole] stands 50 to 200 nM; under `c1cnc(N2CCC(CN3CCCC3c3ccc4c(c3)OCCO4)CC2)nc1` (racemic) [Example 35, 2-(4-((2-(2,3-dihydrobenzo[b] [1,4]dioxin-6-yl)pyrrolidin-1-yl)methyl)piperidin-1-yl)pyrimidine], 200 to 1000 nM; under `CS(=O)(=O)N1CCN(c2ccc(CN3CCCC3c3ccc4c(c3)OCCO4)cc2)CC1` (racemic) [Example 36, 1-(4-((2-(2,3-dihydrobenzo[b] [1,4]dioxin-6-yl)pyrrolidin-1-yl)methyl)phenyl)-4-(methylsulfonyl)piperazine], 200 to 1000 nM.
`CC(=O)N1CCN(c2ccc(CN3CCCC3c3ccc4c(c3)OCCO4)cc2)CC1` (racemic) [Example 37, 1-(4-(4-((2-(2,3-dihydrobenzo[b] [1,4]dioxin-6-yl)pyrrolidin-1-yl)methyl)phenyl)piperazin-1-yl)ethan-1-one]: the IC50 lay within 200 to 1000 nM.
Under `Cc1cc(-c2cccnc2)ccc1CN1CCCC1c1ccc2c(c1)OCCO2` (racemic) [Example 38, 3-(4-((2-(2,3-dihydrobenzo[b] [1,4]dioxin-6-yl)pyrrolidin-1-yl)methyl)-3-methylphenyl)pyridine] stands 50 to 200 nM; under `c1ncc(-c2ccc(CN3CCCC3c3ccc4c(c3)OCCO4)cc2)cn1` (racemic) [Example 39, 5-(4-((2-(2,3-dihydrobenzo[b] [1,4]dioxin-6-yl)pyrrolidin-1-yl)methyl)phenyl)pyrimidine], 50 to 200 nM.
As for `Fc1cc(-c2ccccn2)ccc1CN1CCCC1c1ccc2c(c1)OCCO2` (racemic) [Example 41, 2-(4-((2-(2,3-dihydrobenzo[b] [1,4]dioxin-6-yl)pyrrolidin-1-yl)methyl)-3-fluorophenyl)pyridine], the IC50 was 200 to 1000 nM.
